Like-named read-outs stand apart in the source and are kept apart here.
System: CD34+CD45RA− cell
Assay: Hematopoietic stem cell expansion assay (CD34+CD45RA− cell count versus DMSO vehicle cultures)
Assay type: cell-based
Details: Homo sapiens, concentration that results in a 50% increase in CD34+CD45RA− cell count compared to vehicle cultures (DMSO), read-out: Biological data EC50
Procedure: As used herein, the term “EC50” is intended to mean the concentration that results in a 50% increase in CD34+CD45RA− cell count compared to vehicle cultures (DMSO).
Screening Assay: screening assays were conducted as described in the inventors' previous patent application, WO 2013/110198.
The following biological assays were used to assess the effect of the compounds of the invention on hematopoietic stem cell expansion The results are illustrated in FIGS. 1 to 6. Culture medium: The culture medium used consisted of serum-free medium supplemented with the following recombinant cytokines: interleukin-6, thrombopoietin, Flt-3 ligand, and stem cell factor, each at a final concentration of 100 ng/ml, in the presence of vehicle (DMSO), positive control (SR1), or compound of the invention or a combination of compounds. Cell Culture: CD34+ cell purity of initial harvests was higher than 90%, as determined by flow cytometry. The CD34+ CD45RA− subpopulation reached purity levels higher than 70%. Cells were plated at 40,000 cells/ml and incubated for 7 to 12-days at 37° C. in 5% CO2. For long term cultures, 200,000 CD34+cells/ml from mobilized PB were plated with serum free media supplemented with interleukin-6, thrombopoietin, Flt3 ligand, and stem cell factor, each at a final concentration of 100 ng/ml, in the presence of vehicle (DMSO), positive control, or a compound of the invention at 500 nM.

[1] = Table 1, pyridopyrrolopyrimidine series
[2] = Table 1′, pyrido[4,3-b]indole series

SMILES | EC50 [1] [µM] | EC50 [2] [µM]
COC(=O)c1ccc2c(c1)[nH]c1cc(Cc3ccccc3)nc(NCCN3CCCC3)c12 [3′, methyl 3-benzyl-1-((2-(pyrrolidin-1-yl)ethyl)amino)-5H-pyrido[4,3-b]indole-7-carboxylate] | – | < 0.1
Cn1nnc(-c2ccc3c(c2)[nH]c2cc(Cc4ccccc4)nc(NCCCN4CCCCC4)c23)n1 [5′, 3-benzyl-7-(2-methyl-2H-tetrazol-5-yl)-N-(3-(piperidin-1-yl)propyl)-5H-pyrido[4,3-b]indol-1-amine] | – | 0.1 to 0.25
COC(=O)c1ccc2c(c1)[nH]c1ccnc(NCCCN3CCCCC3)c12 [1′, methyl 1-((3-(piperidin-1-yl)propyl)amino)-5H-pyrido[4,3-b]indole-7-carboxylate] | – | > 1
COC(=O)c1ccc2c(c1)[nH]c1cc(Cc3cccc(OC)c3)nc(NCCCCN3CCCC3)c12 [6′, methyl 3-(3-methoxybenzyl)-1-((4-(pyrrolidin-1-yl)butyl)amino)-5H-pyrido[4,3-b]indole-7-carboxylate] | – | < 0.1
COC(=O)c1ccc2c(c1)[nH]c1cc(Cc3cccnc3)nc(N3CCC(N4CCCC4)CC3)c12 [11′, methyl 3-(pyridin-3-ylmethyl)-1-(4-(pyrrolidin-1-yl)piperidin-1-yl)-5H-pyrido[4,3-b]indole-7-carboxylate] | – | > 1
COC(=O)c1cnc2c(c1)[nH]c1nc(Cc3ccsc3)nc(SCCCN3CCCCC3)c12 [Compound 3, methyl 4-((3-(piperidin-1-yl)propyl)thio)-2-(thiophen-3-ylmethyl)-9H-pyrido[2′,3′:4,5]pyrrolo[2,3-d]pyrimidine-7-carboxylate] | 0.5 to 1 | –
COC(=O)c1cnc2c(c1)[nH]c1nc(Cc3ccccc3)nc(NCCCN3CCCCC3)c12 [Compound 1, methyl 2-benzyl-4-((3-(piperidin-1-yl)propyl)amino)-9H-pyrido[2′,3′:4,5]pyrrolo[2,3-d]pyrimidine-7-carboxylate] | 0.25 to 0.5 | –
COC(=O)c1ccc2c(c1)[nH]c1cc(Cc3cccnc3)nc(NCCCN3CCOCC3)c12 [9′, methyl 1-((3-morpholinopropyl)amino)-3-(pyridin-3-ylmethyl)-5H-pyrido[4,3-b]indole-7-carboxylate] | – | 0.5 to 1
COC(=O)c1ccc2c(c1)[nH]c1cc(Cc3ccccc3)nc(NCCCN3CCCCC3)c12 [2′, methyl 3-benzyl-1-((3-(piperidin-1-yl)propyl)amino)-5H-pyrido[4,3-b]indole-7-carboxylate] | – | < 0.1
COC(=O)c1ccc2c(c1)[nH]c1cc(Cc3ccccc3)nc(N(C)CCCN(C)C)c12 [4′, methyl 3-benzyl-1-((3-(dimethylamino)propyl)(methyl)amino)-5H-pyrido[4,3-b]indole-7-carboxylate] | – | < 0.1
COC(=O)c1cnc2c(c1)[nH]c1nc(Cc3ccsc3)nc(NCCCN3CCCCC3)c12 [Compound 2, methyl 4-((3-(piperidin-1-yl)propyl)amino)-2-(thiophen-3-ylmethyl)-9H-pyrido[2′,3′:4,5]pyrrolo[2,3-d]pyrimidine-7-carboxylate] | 0.25 to 0.5 | –
COC(=O)c1ccc2c(c1)[nH]c1cc(Cc3ccsc3)nc(N[C@H]3CC[C@H](N)CC3)c12 [13′, methyl 1-(((1r,4r)-4-aminocyclohexyl)amino)-3-(thiophen-3-ylmethyl)-5H-pyrido[4,3-b]indole-7-carboxylate] | – | 0.1 to 0.25
COC(=O)c1ccc2c(c1)[nH]c1cc(Cc3ccsc3)nc(NCCCN3CCCCC3)c12 [10′, methyl 1-((3-(piperidin-1-yl)propyl)amino)-3-(thiophen-3-ylmethyl)-5H-pyrido[4,3-b]indole-7-carboxylate] | – | 0.1 to 0.25
COC(=O)c1ccc2c(c1)[nH]c1cc(Cc3ccsc3)nc(NCCC[N+]3(CC(N)=O)CCCCC3)c12 [15′, 1-(2-amino-2-oxoethyl)-1-(3-((7-(methoxycarbonyl)-3-(thiophen-3-ylmethyl)-5H-pyrido[4,3-b]indol-1-yl)amino)propyl)piperidin-1-ium iodide] | – | < 0.1
COC(=O)c1ccc2c(c1)[nH]c1cc(Cc3cccc(O)c3)nc(NCCCCN3CCCC3)c12 [7′, methyl 3-(3-hydroxybenzyl)-1-((4-(pyrrolidin-1-yl)butyl)amino)-5H-pyrido[4,3-b]indole-7-carboxylate] | – | < 0.1
CNCCCN(C)c1nc(Cc2cccnc2)cc2[nH]c3cc(C(=O)OC)ccc3c12 [12′, methyl 1-(methyl(3-(methylamino)propyl)amino)-3-(pyridin-3-ylmethyl)-5H-pyrido[4,3-b]indole-7-carboxylate] | – | > 1
COC(=O)c1ccc2c(c1)[nH]c1cc(Cc3ccsc3)nc(NCCN(C)CCNC(=O)OC(C)(C)C)c12 [8′, methyl 1-((2-((2-((tert-butoxycarbonyl)amino)ethyl)(methyl)amino)ethyl)amino)-3-(thiophen-3-ylmethyl)-5H-pyrido[4,3-b]indole-7-carboxylate] | – | > 1
COC(=O)c1ccc2c(c1)[nH]c1cc(Cc3ccsc3)nc(NCCN(C)CCN)c12 [14′, methyl 1-((2-((2-aminoethyl)(methyl)amino)ethyl)amino)-3-(thiophen-3-ylmethyl)-5H-pyrido[4,3-b]indole-7-carboxylate] | – | 0.25 to 0.5

More lines, now with the values ahead:

EC50 [1] [µM] | EC50 [2] [µM] | SMILES
0.25 to 0.5 | – | COC(=O)c1cnc2c(c1)[nH]c1nc(Cc3ccccc3C)nc(NCCCN3CCCC3)c12 [Compound 8, methyl 2-(2-methylbenzyl)-4-((3-(pyrrolidin-1-yl)propyl)amino)-9H-pyrido[2′,3′:4,5]pyrrolo[2,3-d]pyrimidine-7-carboxylate]
0.25 to 0.5 | – | CCN(CC)CCN(CC)c1nc(Cc2ccccc2)nc2[nH]c3cc(C(=O)OC)cnc3c12 [Compound 16, methyl 2-benzyl-4-((2-(diethylamino)ethyl)(ethyl)amino)-9H-pyrido[2′,3′:4,5]pyrrolo[2,3-d]pyrimidine-7-carboxylate]
0.25 to 0.5 | – | COC(=O)c1cnc2c(c1)[nH]c1nc(Cc3cccc(OC)c3)nc(NCCCN3CCCCC3C)c12 (stereo not shown) [Compound 4, methyl 2-(3-methoxybenzyl)-4-((3-(2-methylpiperidin-1-yl)propyl)amino)-9H-pyrido[2′,3′:4,5]pyrrolo[2,3-d]pyrimidine-7-carboxylate]
0.25 to 0.5 | – | COC(=O)c1cnc2c(c1)[nH]c1nc(Cc3cccc(F)c3)nc(NCCCN(C)CCCN)c12 [Compound 12, methyl 4-((3-((3-aminopropyl)(methyl)amino)propyl)amino)-2-(3-fluorobenzyl)-9H-pyrido[2′,3′:4,5]pyrrolo[2,3-d]pyrimidine-7-carboxylate]
> 1 | – | COC(=O)c1cnc2c(c1)[nH]c1nc(Cc3cccc(F)c3)nc(NCCCN3CCCCC3)c12 [Compound 11, methyl 2-(3-fluorobenzyl)-4-((3-(piperidin-1-yl)propyl)amino)-9H-pyrido[2′,3′:4,5]pyrrolo[2,3-d]pyrimidine-7-carboxylate]
0.25 to 0.5 | – | COC(=O)c1cnc2c(c1)[nH]c1nc(Cc3ccccc3C)nc(NCCCN3CCCCC3)c12 [Compound 7, methyl 2-(2-methylbenzyl)-4-((3-(piperidin-1-yl)propyl)amino)-9H-pyrido[2′,3′:4,5]pyrrolo[2,3-d]pyrimidine-7-carboxylate]
0.25 to 0.5 | – | Cn1nnc(-c2cnc3c(c2)[nH]c2nc(Cc4ccccc4)nc(N[C@H]4CC[C@H](N)CC4)c23)n1 [Compound 10, (1R,4R)—N^1-(2-benzyl-7-(2-methyl-2H-tetrazol-5-yl)-9H-pyrido[2′,3′:4,5]pyrrolo[2,3-d]pyrimidin-4-yl)cyclohexane-1,4-diamine]
< 0.1 | – | COC(=O)c1cnc2c(c1)[nH]c1nc(Cc3ccccc3)nc(N(C)CCCN3CCCCC3)c12 [Compound 6, methyl 2-benzyl-4-(methyl(3-(piperidin-1-yl)propyl)amino)-9H-pyrido[2′,3′:4,5]pyrrolo[2,3-d]pyrimidine-7-carboxylate]
0.5 to 1 | – | CCN(CC)CCNc1nc(Cc2cccc(OC)c2)nc2[nH]c3cc(C(=O)OC)cnc3c12 [Compound 5, methyl 4-((2-(diethylamino)ethyl)amino)-2-(3-methoxybenzyl)-9H-pyrido[2′,3′:4,5]pyrrolo[2,3-d]pyrimidine-7-carboxylate]
0.5 to 1 | – | COC(=O)c1cnc2c(c1)[nH]c1nc(Cc3ccccc3)nc(NCC(C)CN(C)C)c12 (stereo not shown) [Compound 14, methyl 2-benzyl-4-((3-(dimethylamino)-2-methylpropyl)amino)-9H-pyrido[2′,3′:4,5]pyrrolo[2,3-d]pyrimidine-7-carboxylate]
0.5 to 1 | – | CNCCCNc1nc(Cc2ccccc2C)nc2[nH]c3cc(C(=O)OC)cnc3c12 [Compound 9, methyl 4-((3-(methylamino)propyl)amino)-2-(2-methylbenzyl)-9H-pyrido[2′,3′:4,5]pyrrolo[2,3-d]pyrimidine-7-carboxylate]
0.1 to 0.25 | – | COC(=O)c1cnc2c(c1)[nH]c1nc(Cc3ccccc3)nc(N3CCC(N(C)C)CC3)c12 [Compound 15, methyl 2-benzyl-4-(4-(dimethylamino)piperidin-1-yl)-9H-pyrido[2′,3′:4,5]pyrrolo[2,3-d]pyrimidine-7-carboxylate]
> 1 | – | CNCCCNc1nc(Cc2cccc(F)c2)nc2[nH]c3cc(C(=O)OC)cnc3c12 [Compound 13]

Source: US10647718B2, “Compounds and use thereof in the expansion of hematopoietic stem cells and/or hematopoietic progenitor cells” (UNIVERSITÉ DE MONTRÉAL, priority 2014, dated 2020)
